# Patent US20100016232A1, “Treatment Of Inflammatory Diseases With Mammal Beta Defensins” (Novozymes A/S, priority 2008, published 2010)
# Marks after values point to notes of the source that are not given here.
# Columns and labels:
# Format in all cases: in vivo
# [1] = system: DSS-induced colitis in the mouse; test: 10-day DSS-induced colitis, Disease Activity Index (Example 5); conditions: 1 mg/kg p.o. daily
# Procedure: (§1) Animals were divided into 5 experimental groups.
# Colitis was induced in mice by supplementing their drinking water with DSS 2% for 7 days.
# (§2) Daily clinical assessment of DSS-treated animals was carried out, with the calculation of a validated clinical Disease Activity Index (DAI) ranging from 0 to 4 according to the following parameters: stool consistency, presence or absence of rectal bleeding and weight loss:
# Bodyweight loss was calculated as the percent difference between the original bodyweight (Day 1) and the actual bodyweight on each experimental day (2-10).
# The appearance of diarrhoea is defined as mucus/faecal material adherent to anal fur. Rectal bleeding is defined as diarrhoea containing visible blood/mucus or gross rectal bleeding. The maximum score of the DAI each day is 12.
# [2] = system: DSS-induced colitis in the mouse; test: 10-day DSS-induced colitis, colon histological score (Example 5); conditions: 1 mg/kg p.o. daily, day 10
# Excerpt: as §1
# Their colons were removed and their length and weight measured after exclusion of the caecum.
# (§3) Two sections (proximal and distal) of colon were taken from each animal and preserved in neutral buffered formalin for subsequent histological analysis (haematoxylin and eosin staining) according to the following scoring system:
# Two sections (proximal and distal) of colon were taken from each animal, processed for histological analysis (haematoxylin and eosin staining) and scored by a blind observer according to the histological scoring system described above.
# [3] = system: DSS-induced colitis in the mouse; test: 10-day DSS-induced colitis, Disease Activity Index (Example 6); parameters: key: clinical Disease Activity Index (stool, bleeding, weight loss)
# Procedure: as §2
# (§4) Example 6 was carried out essentially as described in Example 5. The differences are indicated below.
# (§5) Animals were divided into 9 experimental groups.
# The animals in group F received one dose i.v. and another dose s.c. (12 hours after the i.v. dose) of the corresponding test item for 10 consecutive days.
# The animals in group G received one dose every two days of the corresponding test item for 10 consecutive days.
# Methylprednisolone was given orally at a dose of 1 mg/kg (group H) and 10 mg/kg (group J) in a dosing volume of 5 ml/kg body weight, once daily for 10 consecutive days.
# [4] = system: DSS-induced colitis in the mouse; test: 10-day DSS-induced colitis, colon histological score (Example 6)
# Procedure: as §3, §4, §5
# Two sections (proximal and distal) of colon were taken from each animal, processed for histological analysis (haematoxylin and eosin staining), and scored by a blind observer according to the scoring system described above.
compound,measurement,setting,value
"C[C@H]1C[C@@H]2[C@H]([C@@H](O)C[C@@]3(C)[C@H]2CC[C@]3(O)C(=O)COC(=O)CCC(=O)O)[C@@]2(C)C=CC(=O)C=C12 [Methylprednisolone 21-hemisuccinate, reference compound]",DAI score,[1]; Day 1,0.00
same,DAI score,[1]; Day 2,0.10
same,DAI score,[1]; Day 3,0.00
same,DAI score,[1]; Day 4,2.60
same,DAI score,[1]; Day 5,2.50
same,DAI score,[1]; Day 6,2.60
same,DAI score,[1]; Day 7,3.10
same,DAI score,[1]; Day 8,2.50*
same,DAI score,[1]; Day 9,3.80*
same,DAI score,[1]; Day 10,4.90**
same,Histology Score Distal Colon,[2],3.70
same,Histology Score Proximal Colon,[2],2.80*
same,Histology Score Proximal Colon,[2]; listed as prednisolone,2.8±0.5
same,"DAI score, mean","[3]; Group H, 1 mg/kg p.o., Day 1",0.00
same,"DAI score, mean","[3]; Group H, 1 mg/kg p.o., Day 2",0.50
same,"DAI score, mean","[3]; Group H, 1 mg/kg p.o., Day 3",0.50
same,"DAI score, mean","[3]; Group H, 1 mg/kg p.o., Day 4",0.40
same,"DAI score, mean","[3]; Group H, 1 mg/kg p.o., Day 5",1.10
same,"DAI score, mean","[3]; Group H, 1 mg/kg p.o., Day 6",3.80
same,"DAI score, mean","[3]; Group H, 1 mg/kg p.o., Day 7",5.90
same,"DAI score, mean","[3]; Group H, 1 mg/kg p.o., Day 8",6.40
same,"DAI score, mean","[3]; Group H, 1 mg/kg p.o., Day 9",5.60*
same,"DAI score, mean","[3]; Group H, 1 mg/kg p.o., Day 10",5.60*
same,"DAI score, mean","[3]; Group J, 10 mg/kg p.o., Day 1",0.00
same,"DAI score, mean","[3]; Group J, 10 mg/kg p.o., Day 2",0.30
same,"DAI score, mean","[3]; Group J, 10 mg/kg p.o., Day 3",0.70
same,"DAI score, mean","[3]; Group J, 10 mg/kg p.o., Day 4",0.80
same,"DAI score, mean","[3]; Group J, 10 mg/kg p.o., Day 5",1.30
same,"DAI score, mean","[3]; Group J, 10 mg/kg p.o., Day 6",2.00
same,"DAI score, mean","[3]; Group J, 10 mg/kg p.o., Day 7",3.20**
same,"DAI score, mean","[3]; Group J, 10 mg/kg p.o., Day 8",4.80**
same,"DAI score, mean","[3]; Group J, 10 mg/kg p.o., Day 9",5.20*
same,"DAI score, mean","[3]; Group J, 10 mg/kg p.o., Day 10",4.00***
same,"Histology Score Distal Colon, mean","[4]; Group H, 1 mg/kg p.o.",3.00***
same,"Histology Score Proximal Colon, mean","[4]; Group H, 1 mg/kg p.o.",1.40
same,"Histology Score Distal Colon, mean","[4]; Group J, 10 mg/kg p.o.",2.70***
same,"Histology Score Proximal Colon, mean","[4]; Group J, 10 mg/kg p.o.",1.40
